“Also recorded” adds a separate entry of the source.
Experiments:
[1] = system: mammals; conditions: cited from earlier work; for neuronal toxicity: several months after the treatment
[2] = system: male Sprague-Dawley rats; assay: Near infrared fluorescence (NIRF) imaging of lymph nodes after penile intracavernous ICG injection; format: in vivo, rat
Procedure: Twenty two 22 male Sprague-Dawley rats received penile intracavernous ICG injections (20 μl of 0.25 mg/ml). […] A Novadaq intraoperative NIRF imaging system (SPY®) was used for macroscopic fluorescence imaging and an Olympus NIRF microscope IX 70 (Olympus America, Inc., Center Valley, Pa.) was used for histology. All animals were anesthetized and shaved before imaging. All visualized nodes were sent for NIR microscopy and haematoxylin and eosin (H&E) staining for histological examination.
More than one pair of sentinel lymph nodes were visualized in 2 rats. […] Lymphatic channels were seen leading to sentinel lymph nodes at 6, 12 and 24 hours (FIG. 1). […] (FIG. 1). […] Thus, NIR fluorescence using ICG facilitates both pre- and intraoperative identification of the first site of penile lymphatic drainage. The methods of the invention should therefore improve the accuracy of surgical staging in patients with penile carcinomas.

[3] = cited from earlier work
[4] = 806 nm excitation light; cited from earlier work

Compound: N=C(N)c1ccc(/C=C/c2ccc(C(=N)N)cc2O)cc1 [Fluorogold]
- toxicity in mammals [1]: low evidence of toxicity
- neuronal toxicity [1]: without evidence of neuronal toxicity

Compound: CC1(C)C(/C=C/C=C/C=C/C=C2\N(CCCCS(=O)(=O)O)c3ccc4ccccc4c3C2(C)C)=[N+](CCCCS(=O)(=O)[O-])c2ccc3ccccc3c21 [ICG, indocyanine green]
- lymphatic channels leading to sentinel lymph nodes ([2]; 6, 12 and 24 hours post-injection): seen
- how long lymph nodes could be seen through the body wall after injection ([2]; animal studies): for days
- confirmation of lymph nodes by NIR microscopy and conventional histology ([2]; rats): All lymph nodes were confirmed
- visualization of inguinal and iliac sentinel lymph nodes with NIRF ([2]; rats): clearly visualized
- intraoperative confirmation of preoperative localization of inguinal nodes ([2]; rats, intraoperative NIRF): confirmed the preoperative localization of the inguinal nodes; also recorded: confirmed preoperative localization of all inguinal nodes
- enterohepatic recirculation ([3]; in vivo): does not undergo enterohepatic recirculation
- metabolism in the body ([3]; in vivo): not metabolized
- reabsorption from the intestine ([3]; in vivo): not reabsorbed
- route of excretion ([3]; in vivo): excreted exclusively by the liver
- distribution after intravenous injection ([3]; normal vascular permeability): remains intravascular
- emitted light wavelength [4]: 830 nm
- toxicity in mammals [1]: low evidence of toxicity
- neuronal toxicity [1]: without evidence of neuronal toxicity

Compound: CC1(C)C(/C=C/C=C/C=C/C=C2\N(CCCCS(=O)(=O)[O-])c3ccc4ccccc4c3C2(C)C)=[N+](CCCCS(=O)(=O)[O-])c2ccc3ccccc3c21.[Na+] [indocyanine green (ICG)]
- shortest time after injection to ability to visualize the lymph nodes ([2]; animal model): 10 min

Compound: Fast Blue
- toxicity in mammals [1]: low evidence of toxicity
- neuronal toxicity [1]: without evidence of neuronal toxicity

Source: patent publication US10434190B2, “Pre-and-intra-operative localization of penile sentinel nodes” (NOVADAQ TECHNOLOGIES ULC, priority 2006, dated 2019)
